Values quoted from earlier work, collected in patent US20160311746A1, “METHOD OF PRODUCING ADIPIC ACID OR AT LEAST A RESULTANT PRODUCT THEREOF” (BASF SE, priority 2013, published 2016).

Conditions: at about 47° C.

solubility in water: about 1 g per 100 g of water
SMILES: O=C(O)/C=C\C=C/C(=O)O [cis,cis-muconic acid]
